A value given as a limit tells only on which side of the number the result lay.

For assay [1], the target named is T1, Endothelin-1 receptor (Rattus norvegicus, UniProt P26684).
T1 sequence (P26684 whole entry): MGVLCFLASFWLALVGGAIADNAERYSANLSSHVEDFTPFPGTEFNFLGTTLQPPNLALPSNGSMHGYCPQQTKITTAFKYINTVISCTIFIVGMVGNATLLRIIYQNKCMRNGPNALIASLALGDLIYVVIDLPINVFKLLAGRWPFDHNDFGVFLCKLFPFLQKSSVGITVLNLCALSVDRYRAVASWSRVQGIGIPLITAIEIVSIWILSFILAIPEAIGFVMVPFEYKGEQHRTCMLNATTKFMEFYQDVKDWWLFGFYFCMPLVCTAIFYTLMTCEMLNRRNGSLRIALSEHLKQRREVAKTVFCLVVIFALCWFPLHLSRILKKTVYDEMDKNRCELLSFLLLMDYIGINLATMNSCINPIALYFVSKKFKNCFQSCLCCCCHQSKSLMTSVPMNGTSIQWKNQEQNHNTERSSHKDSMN
Put plainly: Inhibition of specific binding of [125I]ET1 (endothelin 1) to the endothelin A receptor of rat aorta membranes. The assay is classed as cell membranes, Membrane.

Assay [2] has as its target T1, Endothelin-1 receptor. In words: Compound was evaluated for the antagonism at the Endothelin A receptor (G-protein coupled endothelin A). The assay is classed as functional. The following applies: read-out: pA2 (converted).
Assay [3] addresses T2, Endothelin receptor type B (Sus scrofa, UniProt P35463).
T2 sequence (P35463 whole entry): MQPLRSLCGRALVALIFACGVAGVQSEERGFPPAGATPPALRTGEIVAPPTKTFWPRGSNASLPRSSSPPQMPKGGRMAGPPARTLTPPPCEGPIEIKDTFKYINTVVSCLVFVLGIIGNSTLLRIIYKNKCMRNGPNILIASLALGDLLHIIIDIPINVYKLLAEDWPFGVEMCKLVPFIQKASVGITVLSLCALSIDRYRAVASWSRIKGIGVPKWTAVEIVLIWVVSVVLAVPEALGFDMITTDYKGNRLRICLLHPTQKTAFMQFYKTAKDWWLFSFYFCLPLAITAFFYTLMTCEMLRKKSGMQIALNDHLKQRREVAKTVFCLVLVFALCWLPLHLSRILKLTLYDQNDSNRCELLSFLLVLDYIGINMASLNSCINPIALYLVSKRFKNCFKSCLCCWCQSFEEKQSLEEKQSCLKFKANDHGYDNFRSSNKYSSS
In words: Inhibition of specific binding of [125I]ET1 (endothelin 1) to endothelin B receptor of porcine kidney membranes.

In assay [4] the target is T1, Endothelin-1 receptor. Put plainly: Compound was evaluated for the antagonism at the Endothelin A receptor in isolated rat aortic rings. It is filed as functional. The following applies: read-out: pA2 (converted).
The target in assay [5] is T3, Endothelin receptor type B (Homo sapiens, UniProt P24530).
T3 sequence (P24530 whole entry): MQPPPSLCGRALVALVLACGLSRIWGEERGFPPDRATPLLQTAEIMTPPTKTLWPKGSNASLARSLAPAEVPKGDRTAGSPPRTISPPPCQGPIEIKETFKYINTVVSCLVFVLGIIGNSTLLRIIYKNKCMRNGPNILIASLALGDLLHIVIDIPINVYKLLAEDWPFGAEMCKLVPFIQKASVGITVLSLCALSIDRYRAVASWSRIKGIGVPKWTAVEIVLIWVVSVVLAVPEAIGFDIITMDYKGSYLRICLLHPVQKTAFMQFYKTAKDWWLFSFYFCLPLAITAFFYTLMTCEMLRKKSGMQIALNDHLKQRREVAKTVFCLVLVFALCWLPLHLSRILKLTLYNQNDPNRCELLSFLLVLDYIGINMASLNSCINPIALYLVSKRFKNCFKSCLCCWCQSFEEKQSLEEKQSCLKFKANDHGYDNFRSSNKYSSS
Put plainly: Compound was evaluated for the antagonism at the Endothelin B receptor in isolated rabbit jugularis vein. The following applies: target entry is the homologue from another species; read-out: pA2 (converted). The assay is classed as functional, Oryctolagus cuniculus.

As a reminder, the IC50 is the concentration needed to halve the response being measured. Low values mean greater potency in that assay, high ones weaker potency in that assay. On to `CCCc1cc(C(=O)O)ccc1OC(C(=O)NS(=O)(=O)c1ccc(C(C)C)cc1)c1ccc2c(c1)OCO2` (stereo not given), for which the results for the IC50 in assay [1] and in assay [3] were 41 nM and 900 nM, respectively. In addition, in assay [2], the Kb is 3.16 nM.
With `CCCc1ccc(=O)n(C(C(=O)NS(=O)(=O)c2ccc(C(C)C)cc2)c2ccc3c(c2)OCO3)n1` (stereo not given), the figures for the IC50 in assay [1] and in assay [3] were 640 nM and 8400 nM, respectively.
With `COc1ccc(C2=NN(C(C(=O)NS(=O)(=O)c3ccc(C(C)C)cc3)c3ccc4c(c3)OCO4)C(=O)CC2)cc1` (stereo not given), the IC50 in assay [1] came out at 2900 nM; in assay [3] it was 4200 nM.
Taken in the same sequence, the figures for `COc1ccc(S(=O)(=O)NC(=O)C(c2ccc3c(c2)OCO3)n2nc(C)ccc2=O)cc1` (stereo not given) were 160 nM and > 100000 nM.
Taken in the same sequence, the figures for `COc1ccc(C2=NN(C(C(=O)NS(=O)(=O)c3ccc(C(C)C)cc3)c3ccc4c(c3)OCO4)C(=O)CC2)cc1OC` (stereo not given) were 4100 nM and > 100000 nM.
Take `Cc1ccc(=O)n(C(C(=O)NS(=O)(=O)c2ccc(C(C)C)cc2)c2ccc3c(c2)OCO3)n1` (stereo not given): the IC50 was determined as 34 nM in assay [1] and 2900 nM in assay [3]. The Kb in assay [2] is 631 nM.
Turning to `CC(C)c1ccc(S(=O)(=O)NC(=O)C(c2ccc3c(c2)OCO3)N2N=C(c3cccs3)CCC2=O)cc1` (stereo not given), the results for the IC50 in assay [1] and in assay [3] were 3200 nM and > 100000 nM, respectively.
For `Cc1ccc(=O)n(C(C(=O)NS(=O)(=O)c2ccc(C(C)(C)C)cc2)c2ccc3c(c2)OCO3)n1` (stereo not given), in that order: 32 nM and 2000 nM.
For `Cc1ccc(=O)n(C(C(=O)NS(=O)(=O)c2ccc(-c3ccccc3)cc2)c2ccc3c(c2)OCO3)n1` (stereo not given), in that order: 240 nM and 2400 nM.
Taken in the same sequence, the figures for `CC(C)c1ccc(S(=O)(=O)NC(=O)C(c2ccc3c(c2)OCO3)n2nc(C(C)(C)C)ccc2=O)cc1` (stereo not given) were 4000 nM and > 100000 nM.
For the compound `O=C(O)C(c1ccc2c(c1)OCO2)N1N=C(c2ccccc2)CCC1=O` (stereo not given), the IC50 in assay [1] and in assay [3] was > 100000 nM each time.
As for `CC(C)c1ccc(S(=O)(=O)NC(=O)C(c2ccc3c(c2)OCO3)N2N=C(c3ccc(Cl)cc3)CCC2=O)cc1` (stereo not given), the IC50 amounted to 2700 nM in assay [1] and 6400 nM in assay [3].
Regarding `CC(C)c1ccc(S(=O)(=O)NC(=O)C(c2ccc3c(c2)OCO3)n2nc(C3CC3)ccc2=O)cc1` (stereo not given), the IC50 in assay [1] is 260 nM; in assay [3], 2600 nM.
Consider `Cc1cc(=O)n(C(C(=O)NS(=O)(=O)c2ccc(C(C)C)cc2)c2ccc3c(c2)OCO3)nc1C` (stereo not given), for which the IC50 in assay [1] amounted to 340 nM; in assay [3], 5200 nM.
Taken in the same sequence, the figures for `COc1ccc(C2=NN(C(C(=O)NS(=O)(=O)c3ccc(C(C)C)cc3)c3ccc4c(c3)OCO4)C(=O)CC2)c(OC)c1` (stereo not given) were > 100000 nM and > 100000 nM.
In the case of `Cc1cc(C)c(=O)n(C(C(=O)NS(=O)(=O)c2ccc(C(C)C)cc2)c2ccc3c(c2)OCO3)n1` (stereo not given), the values for the half-maximal inhibitory concentration (IC50) in assay [1] and in assay [3] were 29 nM and 3500 nM, respectively. The Kb in assay [4] was 1260 nM; in assay [5] it was 1580 nM.
On to `CC(C)c1ccc(S(=O)(=O)NC(=O)C(c2ccc3c(c2)OCO3)N2N=C(c3ccccc3)CCC2=O)cc1` (stereo not given), for which the figures for the half-inhibitory concentration (IC50) in assay [1] and in assay [3] were 2600 nM and > 100000 nM, respectively.
Taken in the same sequence, the figures for `CC(C)c1ccc(S(=O)(=O)NC(=O)C(c2ccc3c(c2)OCO3)n2nc3c(cc2=O)CCC3)cc1` (stereo not given) were 2500 nM and 1700 nM.
Taken in the same sequence, the figures for `Cc1ccc(=O)n(C(C(=O)NS(=O)(=O)c2ccc(Br)cc2)c2ccc3c(c2)OCO3)n1` (stereo not given) were 230 nM and > 100000 nM.
For `CCc1cc(C)nn(C(C(=O)NS(=O)(=O)c2ccc(C(C)C)cc2)c2ccc3c(c2)OCO3)c1=O` (stereo not given), in that order: 32 nM and 2600 nM.
For `CCCc1cc(C)c(=O)n(C(C(=O)NS(=O)(=O)c2ccc(C(C)C)cc2)c2ccc3c(c2)OCO3)n1` (stereo not given), the IC50 in assay [1] was 290 nM; in assay [3], 4500 nM.
Taken in the same sequence, the figures for `COc1ccc(OC)c(C2=NN(C(C(=O)NS(=O)(=O)c3ccc(C(C)C)cc3)c3ccc4c(c3)OCO4)C(=O)CC2)c1` (stereo not given) were > 100000 nM and > 100000 nM.
For `COc1ccc(-c2cc(C)c(=O)n(C(C(=O)NS(=O)(=O)c3ccc(C(C)C)cc3)c3ccc4c(c3)OCO4)n2)cc1` (stereo not given), the half-inhibitory concentration (IC50) came to 4000 nM in assay [1] and 7700 nM in assay [3].
For `Cc1ccc(=O)n(C(C(=O)NS(=O)(=O)c2ccccc2)c2ccc3c(c2)OCO3)n1` (stereo not given), in that order: 230 nM and > 100000 nM.
For `COc1ccc(-c2ccc(=O)n(C(C(=O)NS(=O)(=O)c3ccc(C(C)C)cc3)c3ccc4c(c3)OCO4)n2)cc1` (stereo not given), in that order: 3200 nM and 5700 nM.
For `Cc1cc(C)c(=O)n(C(C(=O)NS(=O)(=O)c2ccc(C(C)(C)C)cc2)c2ccc3c(c2)OCO3)n1` (single isomer, unassigned; form 1), in that order: 2600 nM and > 100000 nM.
Regarding `Cc1cc(C)c(=O)n(C(C(=O)NS(=O)(=O)c2ccc(C(C)(C)C)cc2)c2ccc3c(c2)OCO3)n1` (single isomer, unassigned; form 2), the 50% inhibitory concentration (IC50) in assay [1] worked out at 18 nM; in assay [3], 550 nM.
For `Cc1cc(C)c(=O)n(C(C(=O)NS(=O)(=O)c2ccc(C(C)(C)C)cc2)c2ccc3c(c2)OCO3)n1` (stereo in doubt; 2q), in that order: 20 nM and 1200 nM.

The values are drawn from ChEMBL document CHEMBL1130375, “Pyridazinones with a pendant acylsulfonamide moiety as endothelin receptor antagonists” (Bioorg Med Chem Lett, 1997).
